{"source": "patent US20040097464A1", "about": "“Mixture of non-sulfated fucose-based oligosaccharides, a cosmetic or pharmaceutical composition comprising said mixture and its use in cosmetics or pharmacy” (priority 2000, published 2004)", "type_in_all_cases": "cell-based, human", "key": {"MMP-2 [1]": {"test_system": "MMP-2", "test": "MMP activity of non-stimulated skin fibroblasts in monolayer (zymography), expression of MMP-2", "details": "10 μg/ml, 24 hours (section b.2 fibroblasts; title says skin explants)", "source_text": "(§1) Skin fibroblast from a skin of the belly of a person were cultivated until the 7th cellular passage in a DMEM Glutamax (GIBCO) medium containing 1% of antibiotics and of fungicide and 10% of fetal calf serum and were used for the experiment. The fibroblasts were inseminated on 6-well plates at a density of 5.10^4 cells per well. When at the confluence, the culture medium was replaced by a DMEM medium, without phenol red containing 0.1% of BSA and containing the different substances to be treated at a concentration of 10 μg/ml. After 24 hours of culture at 37° C. (5% (v/v) CO2, 95% (v/v) air) the samples were recovered.\nExtracellular medium−1 ml of medium+2 rinsings with 0.25 ml of PBS\nIntracellular medium−cellular carpet sonicated with 1 ml of MMP buffer\nMMP Buffer composition 0.1 M Tris-HCl, pH 7.5, 0.1 M NaCl, 10 mM CaCl2, 1 mM zinc acetate\n(§2) As in the case of the cultures of skin explants, the culture media of the fibroblasts were studied with zymography.\n(§3) When the fibroblasts are cultivated in monolayer, only the widely secreted MMP-2 is visible with a very low quantity of MMP-9, however, present."}, "MMP-9 [2]": {"test_system": "MMP-9", "test": "MMP activity of skin explants stimulated with hyaluronane (gelatin zymography), MMP-9", "details": "skin explants stimulated with 1 mg/ml of hyaluronane, 10 μg/ml", "description": "(§4) Skin explants from a skin of the belly of a person were cultivated in a DMEM medium without phenol red (GIBCO) under stirring at 37° C. for 48 hours with different treatments. The samples were treated with a concentration of 10 μg/ml.\n(§5) Gelatin, substrate of the MMP-s, was co-polymerized at final 1 mg/ml with a gel of polyacrylamide at 10%. The extracellular media from the cultures of skin explant were deposited on the top of the gel, the electrophoresis was carried out at 150 volts. The gels were then incubated in MMP buffer for 24 hours under stirring at 37° C. The gels were then colored with Coomassie blue, then uncolored with distilled water. The lise ranges corresponding to an MMP activity, appeared as white, while the background of the gel was blue. In function of the distance of migration of proteins, one could determine the molecular weights of the enzymes having digested the gelatin. The MMP activity was quantified by morphometric analysis with the aid of a Visiolab computer. […]\n(§6) The protocol of the studies was the same as that used for the study of the MMP activity of the non-stimulated skin explants, but with hyaluronane with a concentration of […] and the samples of oligosaccharides with a concentration of 10 μg/ml, added in the culture medium."}, "MMP-2 [3]": {"test_system": "MMP-2", "test": "MMP activity of skin fibroblasts stimulated with 1 mg/ml hyaluronane (zymography), expression of MMP-2", "details": "1 mg/ml of hyaluronane, 10 μg/ml, 24 hours (section b.2 fibroblasts; title says skin explants not stimulated)", "source_text": "as §1, §2\na.2.2) MMP Activity of the Fibroblasts of Skin Stimulated with 1 mg/ml of Hyaluronane\nThe protocol of the studies is the same as that used for the study of the MMP activity of the non-stimulated fibroblasts of skin, but with hyaluronane with a concentration of 1 mg/ml and the samples of oligosaccharides with a concentration of 10 μg/ml, added in the culture medium.\nas §3"}, "MMP-2 [4]": {"test_system": "MMP-2", "test": "MMP activity of non-stimulated skin explants (gelatin zymography), MMP-2", "details": "10 μg/ml, 48 hours", "description": "as §4\n(§7) Extracellular medium-1 ml of medium\n(§8) Intracellular medium-explant ground with ultraturax in 1 ml of MMP buffer\n(§9) 0.1 M Tris-HCl, pH 7.5, 0.1 M NaCl, 10 mM CaCl2, 1 mM zinc acetate\n(§10) Gelatin, substrate of the MMP-s, was co-polymerized at final 1 mg/ml with a gel of polyacrylamide at 10%. The extracellular media from the cultures of skin explant were deposited on the top of the gel, the electrophoresis was carried out at 150 volts. The gels were then incubated in MMP buffer for 24 hours under stirring at 37° C. The gels were then colored with Coomassie blue, then uncolored with distilled water. The lise ranges corresponding to an MMP activity, appeared as white, while the background of the gel was blue. In function of the distance of migration of proteins, one could determine the molecular weights of the enzymes having digested the gelatin. The MMP activity was quantified by morphometric analysis with the aid of a Visiolab computer."}, "MMP-9 [5]": {"test_system": "MMP-9", "test": "MMP activity of non-stimulated skin explants (gelatin zymography), MMP-9", "details": "10 μg/ml, 48 hours", "description": "as §4, §7, §8, §9, §10"}, "MMP-2 [6]": {"test_system": "MMP-2", "test": "MMP activity of skin explants stimulated with hyaluronane (gelatin zymography), MMP-2", "details": "skin explants stimulated with 1 mg/ml of hyaluronane, 10 μg/ml", "description": "as §4, §5, §6"}}}
{"smiles": "C[C@H](O)[C@@H](O)[C@@H](O)[C@H](O)C=O", "note": "[Fucose, fucose]", "values": [{"measurement": "% of effectiveness: reduction of the expression of MMP-2", "setting": "MMP-2 [1]", "result": 6, "unit": "%"}, {"measurement": "Active/Inactive MMP-9 (active form/inactive form relationship of the enzyme)", "setting": "MMP-9 [2]", "result": 3.54}, {"measurement": "% effectiveness: reduction of active/inactive relationship of MMP-9", "setting": "MMP-9 [2]; vs control", "result": 50, "unit": "%"}, {"measurement": "% effectiveness: reduction of the expression of MMP-2 with respect to the control", "setting": "MMP-2 [3]", "result": 11, "unit": "%"}, {"measurement": "Active/Inactive MMP-2 (active form/inactive form relationship of the enzyme)", "setting": "MMP-2 [4]", "result": 0.80}, {"measurement": "% of effectiveness: reduction of active/inactive relationship of MMP-2", "setting": "MMP-2 [4]; vs control", "result": 6, "unit": "%"}, {"measurement": "Active/Inactive MMP-9 (active form/inactive form relationship of the enzyme)", "setting": "MMP-9 [5]", "result": 2.38}, {"measurement": "% effectiveness: reduction of active/inactive relationship of MMP-9", "setting": "MMP-9 [5]; vs control", "result": 57, "unit": "%"}, {"measurement": "Active/Inactive MMP-2 (active form/inactive form relationship of the enzyme)", "setting": "MMP-2 [6]", "result": 1.65}, {"measurement": "% effectiveness: reduction of active/inactive relationship of MMP-2", "setting": "MMP-2 [6]; vs control", "result": "Ns"}]}
